± gives the expanded uncertainty stated by the source.

The conditions of the series: Crystal; visual observation.

On to `O=C(O)C[C@H](O)C(=O)O` [l-hydroxysuccinic acid], for which the Normal melting temperature came to 99.50 ± 1.6 °C.

(Values after the NIST ThermoML archive (doi:10.1016/j.fluid.2013.10.011).)
